{"source": "paper PMC8298375", "about": "(Naunyn-Schmiedeberg's Archives of Pharmacology, 2021)", "type_in_all_cases": "in vivo, Wistar rats", "key": {"[1]": {"system": "scopolamine-induced amnesia rats", "assay": "Locomotor activity (photoactometer), scopolamine-induced amnesia", "conditions": "scopolamine model, Mean ± SEM, photo beam counts for 5 min", "experimental": "(§1) In the acute model, the rats were trained for Morris water maze (MWM) and passive avoidance test (PAT) tasks in the first 4 days. On the 5th day, 30 min after scopolamine administration, respective treatments were given to all the groups. Fifteen minutes thereafter, the test trials were conducted in MWM and PAT.\nLocomotor activity was assessed in animals using a digital photoactometer (INCO, India) which contains a cage that is 30-cm long and 30-cm deep with a wire mesh at the bottom. The apparatus was placed in a dark, light, and sound attenuated testing room. Before the locomotor task, animals were placed individually in the activity meter for 3 min for habituation. Then, the ambulatory movements were recorded for 5 min and expressed in terms of total photo beam counts for 5 min per animal."}, "[2]": {"system": "scopolamine-induced amnesia rats", "assay": "Morris water maze test, scopolamine-induced amnesia (acute model)", "conditions": "scopolamine 1 mg/kg i.p., Mean ± SEM; for Escape latency: test 15 min after treatment", "experimental": "as §1\nA modified Morris water maze test was used (Nampoothiri [2017]). The pool was positioned in the middle of a dimly lit testing room with distant visual clues that could be used by rats for spatial orientation. The maze consisted of a circular water pool (140 × 45 cm) divided into four equally sized quadrants (NE, SE, SW, and NW) by two imaginary diagonal lines running across the center of the pool. The pool was filled with water maintained at a temperature of 23 ± 2 °C. In the NE quadrant (target quadrant) equidistant from the center and edge of the pool, a platform of 25-cm height and 10-cm diameter was invisibly placed submerged 1 cm below the water surface. Rats were gently placed in each quadrant facing the wall and trained to locate the hidden black platform, and the trial was terminated when the rat reached the platform or after 60 s. Accordingly, rats were subjected to one session of four trials per day for four consecutive days. All rats were left on the platform for 30 s and then removed and towel dried. Inter-trial interval was kept a constant 180 s throughout the study. In the probe trial, platform was removed, and rats were allowed to swim for a 60-s trial period. Data was collected in the form of escape latencies to find the platform; percent of time spent over the target quadrant."}, "[3]": {"assay": "Pharmacokinetic study in scopolamine-induced amnesic rats (plasma)", "conditions": "for Absolute F: absolute bioavailability; for Cl_F_obs: clearance; for DN Cmax: dose-normalised Cmax; for Vz_F_obs: volume of distribution", "experimental": "Samples were then centrifuged at 10,000 rpm for 5 min, and plasma was stored at − 70 °C until analysis.\nBriefly, to an aliquot of 100 µL of rat plasma, 10 µL of IS (1 µg/mL) was added and vortexed for 30 s. Then, 1 mL of TBME tertiary methyl butyl ether) was added and vortexed for 10 min, thereafter centrifuged at 10,000 rpm for 5 min. From the supernatant, 0.9 mL of organic solvent was aspirated and evaporated in a turbo evaporator (Zymark, Hopkinton, MA, USA) at 50 ± 2 °C under the stream of nitrogen. The dried residue was reconstituted with 150 µL of mobile phase, and 50 µL was injected for the HPLC analysis. A full validation according to the US-FDA guidelines was performed in rat plasma. Plasma samples were analyzed by previously validated HPLC with fluorescence detection method (Arumugam [2011]).\nHPLC analysis was carried out on Shimadzu LC-20AD Prominence (Shimadzu Corporation, Kyoto, Japan) equipped with LC-20AD pump, RF-10A-XL fluorescence detector, column oven (CTO-10AS VP), autosampler SIL-20AC HT, and LC solution version 1.24 SP1. The column oven temperature was maintained at 25 °C. The chromatographic separation was achieved by Intersil, ODS-3 V, C18 (250 × 4.6 mm, 5 µm) column (GL Sciences Inc., Japan). Isocratic elution was performed with ammonium acetate buffer (20 mM, pH 4.5) and acetonitrile 74:26 (v/v) as mobile phase. The flow rate was maintained at 1 mL/min, and the injection volume was 50 µL. Fluorimetric detection was used, and excitation and emission wavelength were 220 nm and 293 nm, respectively. The sensitivity of the detector was “medium”, and the response kept at 3. Venlafaxine (IS) was prepared separately in methanol to yield primary standard solutions with a concentration of 1 mg/mL.\nThe pharmacokinetic parameters were calculated using non-compartmental analysis, PK solution 2.1software (Summit Research Services, Montrose, Colorado, USA). The area under the curve (AUC) from zero to infinity is calculated using the trapezoidal method. The terminal elimination rate constant (β) was obtained by plotting log-linear concentration versus time; the corresponding half-life (t1/2β) was calculated by 0.693/β. […] The clearance (CL) and volume of distribution (Vd) were calculated as follows: CL=Dose/AUC0-∞,Vd(apparent)=CL/β"}, "[4]": {"conditions": "Wistar, rat, oral (ORSM), other: intranasal (INRSM)"}}, "note": "Where two headings read alike, the source gives them in different places."}
{"smiles": "CCN(C)C(=O)Oc1cccc([C@H](C)N(C)C)c1", "note": "[INRSM, rivastigmine]", "values": [{"measurement": "Score on actophotometer", "setting": "[1]; listed as SCP + INRSM", "value": "296.50 ± 17.68"}, {"measurement": "Peripheral swim time", "setting": "[2]; listed as SCP + INRSM", "value": "34.22 ± 0.74", "unit": "s"}, {"measurement": "Escape latency", "setting": "[2]; listed as SCP + INRSM", "value": "3.11 ± 0.36", "unit": "s"}, {"measurement": "MRT", "setting": "[3]", "value": "32.12 ± 16.46", "unit": "min"}, {"measurement": "Cmax", "setting": "[3]; Wistar, rat, inhaled or intranasal, 2 mg/kg", "value": "994 ± 471", "unit": "ng/mL"}, {"measurement": "Tmax", "setting": "[3]; [4]", "value": 5, "unit": "min"}, {"measurement": "half-life", "setting": "[3]; [4]", "value": "30.5 ± 10.8", "unit": "min"}, {"measurement": "k el", "setting": "[3]; [4]", "value": 0.000378, "unit": "s⁻¹"}, {"measurement": "AUC(0-inf)", "setting": "[3]; Wistar, rat, other: intranasal, 2 mg/kg", "value": 330, "unit": "ng·h/mL"}, {"measurement": "Absolute F", "setting": "[3]", "value": "65.44 ± 14.57", "unit": "%"}, {"measurement": "Cl_F_obs", "setting": "[3]", "value": "100.95 ± 36.47", "unit": "mL/min"}, {"measurement": "DN Cmax", "setting": "[3]", "value": "497.23 ± 235.52", "unit": "ng/mL"}, {"measurement": "Vz_F_obs", "setting": "[3]", "value": "4.45 ± 1.72", "unit": "L"}]}
{"smiles": "CCN(C)C(=O)Oc1cccc([C@H](C)N(C)C)c1", "note": "[ORSM, rivastigmine]", "values": [{"measurement": "Score on actophotometer", "setting": "[1]; listed as SCP + ORSM", "value": "238.16 ± 20.88"}, {"measurement": "Escape latency", "setting": "[2]; listed as SCP + ORSM", "value": "3.89 ± 0.44", "unit": "s"}, {"measurement": "MRT", "setting": "[3]; Wistar, rat, oral (ORSM), other: intranasal (INRSM), read-out: MRT (converted)", "value": 27.6, "unit": "min"}, {"measurement": "clearance", "setting": "[3]; Wistar, rat, oral, 2.5 mg/kg, read-out: clearance rate", "value": "1500 ± 760", "unit": "mL/min"}, {"measurement": "Vd", "setting": "[3]; Wistar, rat, oral, 2.5 mg/kg, read-out: volume of distribution", "value": "29.2 ± 14.3", "unit": "L/kg"}, {"measurement": "Tmax", "setting": "[3]; Wistar, rat, po", "value": 15, "unit": "min"}, {"measurement": "half-life", "setting": "[3]; Wistar, rat, po", "value": "13.5 ± 5.79", "unit": "min"}, {"measurement": "k el", "setting": "[3]; Wistar, rat, po", "value": 0.000857, "unit": "s⁻¹"}, {"measurement": "AUC(0-inf)", "setting": "[3]; Wistar, rat, po, 2.5 mg/kg", "value": 27.7, "unit": "ng·h/mL"}, {"measurement": "Cmax", "setting": "[3]; Wistar, rat, po, 2.5 mg/kg", "value": "56.3 ± 27.1", "unit": "ng/mL"}, {"measurement": "Absolute F", "setting": "[3]", "value": "4.39 ± 1.82", "unit": "%"}, {"measurement": "Absolute F", "setting": "[3]; listed as oral rivastigmine", "value": "4.39 ± 1.82", "unit": "%"}, {"measurement": "Cl_F_obs", "setting": "[3]", "value": "1502.59 ± 763.25", "unit": "mL/min"}, {"measurement": "DN Cmax", "setting": "[3]", "value": "22.51 ± 10.82", "unit": "ng/mL"}, {"measurement": "Vz_F_obs", "setting": "[3]", "value": "29.23 ± 14.35", "unit": "L"}]}
